Assay results taken from patent US10543216B2, “Modus of administration of iron, and new formulations adapted for the said goal” (BIOFER S.P.A., priority 2013, dated 2020).
Where two headings read alike, the source gives them in different places.

Assays:
[1] = system: Pig esophageal epithelium; assay: in vitro permeation in the Franz cell (model of sublingual absorption); details: FIG. 2
Method: Sublingual absorption of Fe++ compounds was evaluated by means of in vitro permeation experiments using the Franz cell exemplified in FIG. 1. Pig esophageal epithelium was used as membrane. This experimental model is recognized as valid and reliable in the assessment of sublingual absorption of drugs [I. Diaz Del Consuelo, G. P. Pizzolato, F. Falsom, R. H. Guy, and Y. Jacques.: Evaluation of pig esophageal mucosa as a permeability barrier model for buccosal tissue. J. Pharm. […] Arch. […] Membrane preparation occurred by following the method described here. The esophagi were taken from the animals within one hour after sacrifice. The mucosa was separated from the muscle tissue with a lancet. To separate the epithelium, the mucosa was immersed in distilled water at 60° C. for 2 minutes and then the epithelium was removed from the underlying tissue with the aid of a spatula. The tissues thus prepared were stored at −20° C. until the time of use, when they were thawed to room temperature before being mounted on the vertical diffusion cells of the Franz type, a schematic view of which is shown in FIG. 1. The esophageal epithelium was placed on a regenerated cellulose filter (pore diameter 0.45 μm) with the luminal side facing up, and mounted between the donor and receptor compartments of the Franz cells. […] The exposed surface was 0.6 cm^2. The receptor compartment was filled with approximately 4 ml of physiological solution (0.9% NaCl w/v) and kept under constant magnetic agitation for the entire duration of the experiment. The entire system was thermostat-controlled at 37° C. Sampling of the receptor compartment was performed by drawing 200 μl of receptor solution, which were replaced immediately with an equal volume of fresh physiological solution. The samples were taken at preset time intervals, specifically at 0, 1, 2, 3, 4, 5 and 6 hours.
4 g of powder were suspended in 10 ml of physiological solution and left under agitation for 15 minutes, then the solution was filtered with regenerated cellulose filters (pore diameter 0.45 μm).
6 g of powder were suspended in 10 ml of physiological solution. The suspension was left under magnetic agitation for 25 minutes and then filtered with regenerated cellulose filters (pore diameter 0.45 μm).
7 g of powder were suspended in 6 ml of physiological solution. The suspension was left under magnetic agitation for 1 hour; at the end it was filtered with regenerated cellulose filters (pore diameter 0.45 μm).
An excess of ascorbic acid (2 g) was added to the solution. The suspension was left under magnetic agitation for 30 minutes and after filtration through regenerated cellulose filters (pore diameter 0.45 μm) was used as it was.
4 g of powder were suspended in 10 ml of physiological solution. The suspension was left under magnetic agitation for 15 hours, at the end of which it was filtered with regenerated cellulose filters (pore diameter 0.45 μm).
An excess of powder was suspended in 10 ml of physiological solution. The suspension was left under magnetic agitation for 15 hours, at the end of which it was filtered with regenerated cellulose filters (pore diameter 0.45 μm).

[2] = randomized clinical study, sublingual administration of 30 mg of Fe2+ to healthy volunteers; format: in vivo, human; details: for Serum Fe / Transferrin saturation / Total iron / NTBI (free non transferrin bound iron): 30 mg Fe2+ sublingual (6 sachets of example 6), fasting healthy volunteers n=2, average; for Total iron / NTBI (free non transferrin bound iron): ICP-MS; for NTBI (free non transferrin bound iron): ultrafiltration
Method: The participants were hospitalized for two days prior to administration until the next day and were under medical observation.
The samples were then analyzed with respect to the trend of (average) concentrations of various indicators over time.
Total iron measured in micrograms/dl (ICP-MS)
Free iron by ultrafiltration measured in micromoles/liter (=NTBI) (ICP-MS)
Total iron binding capacity (TIBC) measured in micrograms/dl (column separation, Vitros analyzer)
Transferrin saturation (PTS) measured in %
Serum iron (SI), measured in micrograms/dl, colorimetric method (Vitros analyzer)

[3] = 100 mg of Fe2+ orally, healthy volunteers, Dresow et al., FIG. 5, cited from earlier work

ferrous ascorbate [Fe++ ascorbate]
permeated divalent Fe ([1]; 50 mg/ml solution, in the presence of ascorbic acid, pH 2.6, after 3 hours): above 150 micrograms/square centimeter
permeated divalent Fe ([1]; 50 mg/ml solution, in the presence of ascorbic acid, pH 2.6, after 4 hours): approximately 200 micrograms/square centimeter
permeated divalent Fe ([1]; 350 mg/ml solution, in the presence of ascorbic acid, pH 4.4, after 3 hours): below 150 micrograms/square centimeter
permeated divalent Fe ([1]; 350 mg/ml solution, in the presence of ascorbic acid, pH 4.4, after 4 hours): approximately 200 micrograms/square centimeter
permeated divalent Fe ([1]; 400 mg/ml solution, in the absence of ascorbic acid, pH 4.4, after 3 hours): above 100 micrograms/square centimeter
permeated divalent Fe ([1]; 400 mg/ml solution, in the absence of ascorbic acid, pH 4.4, after 6 hours): approximately 150 micrograms/square centimeter
permeated divalent Fe ([1]; 600 mg/ml solution, in the absence of ascorbic acid, pH 4.4, after 3 hours): above 100 micrograms/square centimeter
permeated divalent Fe ([1]; 600 mg/ml solution, in the absence of ascorbic acid, pH 4.4, after 6 hours): approximately 125 micrograms/square centimeter
permeated divalent Fe ([1]; 1000 mg/ml solution, in the absence of ascorbic acid, pH 4.4, after 3 hours): approximately 50 micrograms/square centimeter
permeated divalent Fe ([1]; 1000 mg/ml solution, in the absence of ascorbic acid, pH 4.4, after 5 hours): approximately 100 micrograms/square centimeter
Serum Fe ([2]; time 0 h): 0 µg/dL
Transferrin saturation ([2]; time 0 min (at administration)): ~24%
Serum Fe ([2]; time 0.033 h): 5.5 µg/dL
Transferrin saturation ([2]; time 2 min): 28%
Serum Fe ([2]; time 0.100 h): 7 µg/dL
Transferrin saturation ([2]; time 6 min): 28%
Serum Fe ([2]; time 0.200 h): 6 µg/dL
Transferrin saturation ([2]; time 12 min): 28.5%
Serum Fe ([2]; time 0.330 h): 10 µg/dL
Transferrin saturation ([2]; time 20 min): 26.5%
Serum Fe ([2]; time 0.500 h): 24 µg/dL
Transferrin saturation ([2]; time 30 min): 36%
Serum Fe ([2]; time 0.750 h): 51.5 µg/dL
Transferrin saturation ([2]; time 45 min): 40.5%
Serum Fe ([2]; time 1.000 h): 72 µg/dL
Transferrin saturation ([2]; time 60 min): 50%
Serum Fe ([2]; time 1.250 h): 91 µg/dL
Transferrin saturation ([2]; time 75 min): 51.5%
Serum Fe ([2]; time 1.500 h): 110.5 µg/dL
Transferrin saturation ([2]; time 90 min): 60%
Serum Fe ([2]; time 1.750 h): 118.5 µg/dL
Transferrin saturation ([2]; time 105 min): 49.5%
Serum Fe ([2]; time 2.000 h): 129 µg/dL
Transferrin saturation ([2]; time 120 min (2 hours), listed as Fe2+ (as ascorbate)): 65.5%
Transferrin saturation ([2]; time 120 min (2 hours), listed as Fe2+ Ascorbate): 66.5%
increase in transferrin saturation (PTS) ([2]; 30 mg of Fe2+ sublingual, healthy volunteers, after 2 hours versus time of administration): 42.5%
free iron (NTBI) ([2]; 30 mg of Fe2+ sublingual, healthy volunteers, after 2 hours, from 0): 0.34 µmol/L
Total iron ([2]; time 0.00 h): 0 µg/dL
Total iron ([2]; time 0.03 h): -7.4 µg/dL
Total iron ([2]; time 0.10 h): 6.2 µg/dL
Total iron ([2]; time 0.20 h): -13.54 µg/dL
Total iron ([2]; time 0.33 h): 5.95 µg/dL
Total iron ([2]; time 0.50 h): 6.37 µg/dL
Total iron ([2]; time 0.75 h): 41.58 µg/dL
Total iron ([2]; time 1.00 h): 51.01 µg/dL
Total iron ([2]; time 1.25 h): 80.17 µg/dL
Total iron ([2]; time 1.50 h): 90.15 µg/dL
Total iron ([2]; time 1.75 h): 95.7 µg/dL
Total iron ([2]; time 2.00 h): 110.94 µg/dL
NTBI (free non transferrin bound iron) ([2]; time 0 min): 0.000 µmol/L
NTBI (free non transferrin bound iron) ([2]; time 2 min): -0.306 µmol/L
NTBI (free non transferrin bound iron) ([2]; time 6 min): -0.215 µmol/L
NTBI (free non transferrin bound iron) ([2]; time 12 min): 0.029 µmol/L
NTBI (free non transferrin bound iron) ([2]; time 20 min): 0.067 µmol/L
NTBI (free non transferrin bound iron) ([2]; time 30 min): 0.106 µmol/L
NTBI (free non transferrin bound iron) ([2]; time 45 min): 0.448 µmol/L
NTBI (free non transferrin bound iron) ([2]; time 60 min): 0.311 µmol/L
NTBI (free non transferrin bound iron) ([2]; time 75 min): 1.191 µmol/L
NTBI (free non transferrin bound iron) ([2]; time 90 min): 0.084 µmol/L
NTBI (free non transferrin bound iron) ([2]; time 105 min): 0.806 µmol/L
NTBI (free non transferrin bound iron) ([2]; time 120 min): 0.339 µmol/L
increase in transferrin saturation ([3]; after 2 hours): approximately 45%
transferrin saturation (absolute) ([3]; after two hours): approximately 75%
Transferrin saturation ([3]; at the time of administration): approximately 30%
free iron (NTBI) ([3]; within two hours, from 0): 6.7 µmol/L
